{"source": "patent US6914045B2", "about": "“Glycopeptide antibiotics” (Wyeth Holdings Corporation, priority 2001, dated 2005)", "key": {"Enterococcus sp.": {"system": "Enterococcus sp.", "assay": "in vitro antibacterial evaluation, MIC by broth dilution", "type": "cell-based", "details": "broth dilution, 18 hours at 35° C.", "method_in_brief": "(§1)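 Step 1: dilute antibiotic across 64-0.06 μg/mL in Muller-Hinton II […]. Step 2: inoculate at 5×10^5 CFU/mL.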"}, "Escherichia coli": {"system": "Escherichia coli", "assay": "in vitro antibacterial evaluation, MIC by broth dilution", "type": "cell-based", "details": "18 hours at 35° C.", "method_in_brief": "as §1"}, "Staphylococcus sp.": {"system": "Staphylococcus sp.", "assay": "in vitro antibacterial evaluation, MIC by broth dilution", "type": "cell-based", "details": "broth dilution, 18 hours at 35° C.", "method_in_brief": "as §1"}, "Streptococcus sp.": {"system": "Streptococcus sp.", "assay": "in vitro antibacterial evaluation, MIC by broth dilution", "type": "cell-based", "details": "broth dilution, 18 hours at 35° C.", "method_in_brief": "as §1"}, "[1]": {"system": "Enterococcus faecalis (GC 6189)", "assay": "acute lethal infection in mice", "type": "in vivo", "details": "female CD-1 mice, intraperitoneal challenge, intravenous 30 min. after infection, 7 day survival", "method_in_brief": "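Survival at 7 days, pooled from three independent tests, yields ED50 values. Treatment is intravenous, 30 min after ip infection of female CD-1 mice, using an inoculum lethal to untreated controls within 24-48 hr.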"}}}
{"smiles": "CC(c1ccccc1)C1NC(=O)CNC(=O)C(CO)NC(=O)C(C(O)C2CNC(=N)N2C2OC(CO)C(O)C(O)C2O)NC(=O)C(C(O)C2CNC(=N)N2)NC(=O)C(Cc2ccc(OC3OC(CO)C(OC4OC5COC(C6CCCC6)OC5C(O)C4O)C(O)C3O)cc2)NC1=O", "note": "(stereo not drawn) [Example 117, Cyclo[glycyl-β-methylphenylalanyl-O-[4-O-[4,6-O-(cyclopentylmethylene)hexopyranosyl]-hexopyranosyl]tyrosyl-3-(2-iminoiniidazolidin-4-yl)seryl-3-(3-hexopyranosyl-2-iminoimidazolidin-4-yl)serylseryl]]", "values": [{"measurement": "MIC Enterococcus avium (GC 4558)", "setting": "Enterococcus sp.; Enterococcus avium (GC 4558)", "result": 4, "unit": "µg/mL"}, {"measurement": "MIC Enterococcus faecalis (ATCC 29212)", "setting": "Enterococcus sp.; Enterococcus faecalis (ATCC 29212)", "result": 2, "unit": "µg/mL"}, {"measurement": "MIC Enterococcus faecalis (GC 2242)", "setting": "Enterococcus sp.; Enterococcus faecalis (GC 2242)", "result": 2, "unit": "µg/mL"}, {"measurement": "MIC Enterococcus faecalis (GC 2691)", "setting": "Enterococcus sp.; Enterococcus faecalis (GC 2691)", "result": 4, "unit": "µg/mL"}, {"measurement": "MIC Enterococcus faecalis (GC 3059)", "setting": "Enterococcus sp.; Enterococcus faecalis (GC 3059)", "result": 4, "unit": "µg/mL"}, {"measurement": "MIC Enterococcus faecalis (GC 4552)", "setting": "Enterococcus sp.; Enterococcus faecalis (GC 4552)", "result": 4, "unit": "µg/mL"}, {"measurement": "MIC Enterococcus faecalis (GC 4553)", "setting": "Enterococcus sp.; Enterococcus faecalis (GC 4553)", "result": 4, "unit": "µg/mL"}, {"measurement": "MIC Enterococcus faecalis (GC 4554)", "setting": "Enterococcus sp.; Enterococcus faecalis (GC 4554)", "result": 2, "unit": "µg/mL"}, {"measurement": "MIC Enterococcus faecalis (GC 6189)", "setting": "Enterococcus sp.; Enterococcus faecalis (GC 6189)", "result": 2, "unit": "µg/mL"}, {"measurement": "MIC Enterococcus faecium (GC 2243)", "setting": "Enterococcus sp.; Enterococcus faecium (GC 2243)", "result": 2, "unit": "µg/mL"}, {"measurement": "MIC Enterococcus faecium (GC 4556)", "setting": "Enterococcus sp.; Enterococcus faecium (GC 4556)", "result": 2, "unit": "µg/mL"}, {"measurement": "MIC Enterococcus faecium (GC 4557)", "setting": "Enterococcus sp.; Enterococcus faecium (GC 4557)", "result": 2, "unit": "µg/mL"}, {"measurement": "MIC Enterococcus faecalis (ATCC 29212)", "setting": "Enterococcus sp.; strain ATCC 29212", "result": 2, "unit": "µg/mL"}, {"measurement": "MIC Enterococcus faecalis (GC 2242)", "setting": "Enterococcus sp.; strain GC 2242", "result": 2, "unit": "µg/mL"}, {"measurement": "MIC Enterococcus faecium (GC 2243)", "setting": "Enterococcus sp.; strain GC 2243", "result": 2, "unit": "µg/mL"}, {"measurement": "MIC Enterococcus faecalis (GC 2691)", "setting": "Enterococcus sp.; strain GC 2691", "result": 4, "unit": "µg/mL"}, {"measurement": "MIC Enterococcus faecalis (GC 3059)", "setting": "Enterococcus sp.; strain GC 3059", "result": 4, "unit": "µg/mL"}, {"measurement": "MIC Enterococcus faecalis (GC 4552)", "setting": "Enterococcus sp.; strain GC 4552", "result": 4, "unit": "µg/mL"}, {"measurement": "MIC Enterococcus faecalis (GC 4553)", "setting": "Enterococcus sp.; strain GC 4553", "result": 4, "unit": "µg/mL"}, {"measurement": "MIC Enterococcus faecalis (GC 4554)", "setting": "Enterococcus sp.; strain GC 4554", "result": 2, "unit": "µg/mL"}, {"measurement": "MIC Enterococcus faecium (GC 4556)", "setting": "Enterococcus sp.; strain GC 4556", "result": 2, "unit": "µg/mL"}, {"measurement": "MIC Enterococcus faecium (GC 4557)", "setting": "Enterococcus sp.; strain GC 4557", "result": 2, "unit": "µg/mL"}, {"measurement": "MIC Enterococcus avium (GC 4558)", "setting": "Enterococcus sp.; strain GC 4558", "result": 4, "unit": "µg/mL"}, {"measurement": "MIC Enterococcus faecalis (GC 6189)", "setting": "Enterococcus sp.; strain GC 6189", "result": 2, "unit": "µg/mL"}, {"measurement": "MIC Escherichia coli (ATCC 25922)", "setting": "Escherichia coli; strain ATCC 25922", "result": 64, "unit": "µg/mL"}, {"measurement": "MIC Escherichia coli (GC 4559)", "setting": "Escherichia coli; strain GC 4559", "result": 32, "unit": "µg/mL"}, {"measurement": "MIC Escherichia coli (GC 4560)", "setting": "Escherichia coli; strain GC 4560", "result": 1, "unit": "µg/mL"}, {"measurement": "MIC Coagulase Negative Staphylococcus (GC 4547)", "setting": "Staphylococcus sp.", "result": 1, "unit": "µg/mL"}, {"measurement": "MIC Coagulase Negative Staphylococcus (GC 4548)", "setting": "Staphylococcus sp.", "result": 1, "unit": "µg/mL"}, {"measurement": "MIC Coagulase Negative Staphylococcus (GC 4549)", "setting": "Staphylococcus sp.", "result": 1, "unit": "µg/mL"}, {"measurement": "MIC Coagulase Negative Staphylococcus (GC 4551)", "setting": "Staphylococcus sp.", "result": 2, "unit": "µg/mL"}, {"measurement": "MIC Coagulase Negative Staphylococcus (GC 6257)", "setting": "Staphylococcus sp.", "result": 0.5, "unit": "µg/mL"}, {"measurement": "MIC Staphylococcus aureus (ATCC 29213)", "setting": "Staphylococcus sp.", "result": 1, "unit": "µg/mL"}, {"measurement": "MIC Staphylococcus aureus (GC 1131)", "setting": "Staphylococcus sp.", "result": 2, "unit": "µg/mL"}, {"measurement": "MIC Staphylococcus aureus (GC 3051)", "setting": "Staphylococcus sp.", "result": 1, "unit": "µg/mL"}, {"measurement": "MIC Staphylococcus aureus (GC 3053)", "setting": "Staphylococcus sp.", "result": 2, "unit": "µg/mL"}, {"measurement": "MIC Staphylococcus aureus (GC 4541)", "setting": "Staphylococcus sp.", "result": 1, "unit": "µg/mL"}, {"measurement": "MIC Staphylococcus aureus (GC 4542)", "setting": "Staphylococcus sp.", "result": 1, "unit": "µg/mL"}, {"measurement": "MIC Staphylococcus aureus (GC 4544)", "setting": "Staphylococcus sp.", "result": 2, "unit": "µg/mL"}, {"measurement": "MIC Staphylococcus aureus (GC 4545)", "setting": "Staphylococcus sp.", "result": 1, "unit": "µg/mL"}, {"measurement": "MIC Staphylococcus aureus-SMITH (GC 4543)", "setting": "Staphylococcus sp.", "result": 1, "unit": "µg/mL"}, {"measurement": "MIC Staphylococcus haemolyticus (GC 4546)", "setting": "Staphylococcus sp.", "result": 1, "unit": "µg/mL"}, {"measurement": "MIC Staphylococcus aureus (GC 1131)", "setting": "Staphylococcus sp.; inoculum 5×10^5 CFU/mL, strain GC 1131", "result": 2, "unit": "µg/mL"}, {"measurement": "MIC Staphylococcus aureus (ATCC 29213)", "setting": "Staphylococcus sp.; strain ATCC 29213", "result": 1, "unit": "µg/mL"}, {"measurement": "MIC Staphylococcus aureus (GC 3051)", "setting": "Staphylococcus sp.; strain GC 3051", "result": 1, "unit": "µg/mL"}, {"measurement": "MIC Staphylococcus aureus (GC 3053)", "setting": "Staphylococcus sp.; strain GC 3053", "result": 2, "unit": "µg/mL"}, {"measurement": "MIC Staphylococcus aureus (GC 4541)", "setting": "Staphylococcus sp.; strain GC 4541", "result": 1, "unit": "µg/mL"}, {"measurement": "MIC Staphylococcus aureus (GC 4542)", "setting": "Staphylococcus sp.; strain GC 4542", "result": 1, "unit": "µg/mL"}, {"measurement": "MIC Staphylococcus aureus (GC 4544)", "setting": "Staphylococcus sp.; strain GC 4544", "result": 2, "unit": "µg/mL"}, {"measurement": "MIC Staphylococcus aureus (GC 4545)", "setting": "Staphylococcus sp.; strain GC 4545", "result": 1, "unit": "µg/mL"}, {"measurement": "MIC Staphylococcus haemolyticus (GC 4546)", "setting": "Staphylococcus sp.; strain GC 4546", "result": 1, "unit": "µg/mL"}, {"measurement": "MIC Coagulase Negative Staphylococcus (GC 4547)", "setting": "Staphylococcus sp.; strain GC 4547", "result": 1, "unit": "µg/mL"}, {"measurement": "MIC Coagulase Negative Staphylococcus (GC 4548)", "setting": "Staphylococcus sp.; strain GC 4548", "result": 1, "unit": "µg/mL"}, {"measurement": "MIC Coagulase Negative Staphylococcus (GC 4549)", "setting": "Staphylococcus sp.; strain GC 4549", "result": 1, "unit": "µg/mL"}, {"measurement": "MIC Coagulase Negative Staphylococcus (GC 4551)", "setting": "Staphylococcus sp.; strain GC 4551", "result": 2, "unit": "µg/mL"}, {"measurement": "MIC Coagulase Negative Staphylococcus (GC 6257)", "setting": "Staphylococcus sp.; strain GC 6257", "result": 0.5, "unit": "µg/mL"}, {"measurement": "MIC Staphylococcus aureus-SMITH (GC 4543)", "setting": "Staphylococcus sp.; strain SMITH GC 4543", "result": 1, "unit": "µg/mL"}, {"measurement": "MIC Streptococcus agalactiae (GC 4564)", "setting": "Streptococcus sp.; Streptococcus agalactiae (GC 4564)", "result": 0.25, "unit": "µg/mL"}, {"measurement": "MIC Streptococcus pneumoniae (ATCC 6301)", "setting": "Streptococcus sp.; Streptococcus pneumoniae (ATCC 6301)", "result": "<0.06", "unit": "µg/mL"}, {"measurement": "MIC Streptococcus pneumoniae (GC 1894)", "setting": "Streptococcus sp.; Streptococcus pneumoniae (GC 1894)", "result": "<0.06", "unit": "µg/mL"}, {"measurement": "MIC Streptococcus pneumoniae (GC 4565)", "setting": "Streptococcus sp.; Streptococcus pneumoniae (GC 4565)", "result": 0.12, "unit": "µg/mL"}, {"measurement": "MIC Streptococcus pyogenes (GC 4563)", "setting": "Streptococcus sp.; Streptococcus pyogenes (GC 4563)", "result": 0.25, "unit": "µg/mL"}, {"measurement": "MIC Streptococcus pneumoniae (ATCC 6301)", "setting": "Streptococcus sp.; strain ATCC 6301", "result": "<0.06", "unit": "µg/mL"}, {"measurement": "MIC Streptococcus pneumoniae (GC 1894)", "setting": "Streptococcus sp.; strain GC 1894", "result": "<0.06", "unit": "µg/mL"}, {"measurement": "MIC Streptococcus pyogenes (GC 4563)", "setting": "Streptococcus sp.; strain GC 4563", "result": 0.25, "unit": "µg/mL"}, {"measurement": "MIC Streptococcus agalactiae (GC 4564)", "setting": "Streptococcus sp.; strain GC 4564", "result": 0.25, "unit": "µg/mL"}, {"measurement": "MIC Streptococcus pneumoniae (GC 4565)", "setting": "Streptococcus sp.; strain GC 4565", "result": 0.12, "unit": "µg/mL"}, {"measurement": "median effective dose (ED50), Enterococcus faecalis (GC 6189)", "setting": "[1]", "result": 0.38, "unit": "mg/kg"}]}
